Reference: publication PMC8773473, “Lithocholic Acid Amides as Potent Vitamin D Receptor Agonists” (Biomolecules, 2022)
Like-named read-outs stand apart in the source and are kept apart here.

T1: VDR (Homo sapiens, UniProt P11473)
T1 construct: expressed in transfected cells; host or cells: HEK293
T1 sequence (P11473 1-427): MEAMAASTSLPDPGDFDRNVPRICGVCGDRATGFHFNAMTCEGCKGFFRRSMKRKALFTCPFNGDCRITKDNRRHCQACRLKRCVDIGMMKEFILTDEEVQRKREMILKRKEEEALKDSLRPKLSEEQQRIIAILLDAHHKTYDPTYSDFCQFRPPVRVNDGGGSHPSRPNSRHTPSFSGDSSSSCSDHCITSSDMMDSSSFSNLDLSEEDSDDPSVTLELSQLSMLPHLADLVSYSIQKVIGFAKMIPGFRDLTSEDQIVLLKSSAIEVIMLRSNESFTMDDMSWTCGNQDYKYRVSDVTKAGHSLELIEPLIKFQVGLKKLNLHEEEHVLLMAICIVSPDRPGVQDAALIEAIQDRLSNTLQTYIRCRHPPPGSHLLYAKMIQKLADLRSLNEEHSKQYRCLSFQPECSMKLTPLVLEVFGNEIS

T2: rat VDR LBD (residues 116–423, Δ165–211) (rat, UniProt P13053 116-423, Δ165–211)
T2 construct: Cloned in pET14b; tag removed by thrombin digestion; also called rVDR LBD; source: Escherichia coli C41, purified (Ni-NTA, SP-Sepharose, thrombin digestion, gel filtration); not shown: His6, N-terminal, cleaved
T2 sequence (looked up): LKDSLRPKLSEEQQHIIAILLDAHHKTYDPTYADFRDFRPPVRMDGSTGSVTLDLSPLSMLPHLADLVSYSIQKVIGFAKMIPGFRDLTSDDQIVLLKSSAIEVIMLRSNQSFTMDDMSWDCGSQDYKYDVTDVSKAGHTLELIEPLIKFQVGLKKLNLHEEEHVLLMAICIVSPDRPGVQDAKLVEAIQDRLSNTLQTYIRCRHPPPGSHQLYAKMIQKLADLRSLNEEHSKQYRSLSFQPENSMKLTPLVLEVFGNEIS

B1: coactivator peptide (H2N-KNHPMLMNLLKDN-CONH2) derived from DRIP205 (peptide)
peptide: H-KNHPMLMNLLKDN-NH2
notes: also called MED1 peptide; source: synthetic peptide

Experiments:
VDR = target: T1, VDR; experiment: VDR transactivation assay (luciferase reporter) in HEK293 cells; format: cell-based
Protocol: Human embryonic kidney HEK293 cells (RIKEN Cell Bank, Tsukuba, Japan) were cultured in Dulbecco’s modified Eagle’s medium containing 5% FBS, 100 U/mL penicillin, and 0.1 mg/mL streptomycin (Nacalai Tesque, Kyoto, Japan). Transfections used 15 ng of pCMX-hVDR, 50 ng of TK-Spp × 3-LUC reporter plasmid, and 10 ng of pCMX-β-galactosidase for each well of a 96-well plate, and were performed by the calcium phosphate coprecipitation assay as described previously. Eight hours after transfection, test compounds were added. Cells were harvested after 16–24 h and were assayed for luciferase and β-galactosidase activity using a luminometer and a microplate reader (Molecular Devices, Sunnyvale, CA, USA). Luciferase data were normalized to the internal β-galactosidase control. All experiments were done in triplicate.

HL-60 cells = experiment: HL-60 cell differentiation-inducing assay (NBT reduction); format: cell-based, human; conditions: for EC50: Homo sapiens, HL-60, 96 h, read-out: HL-60 Assay EC50
Protocol: The vitamin D activity of the synthesized lithocholic acid amide derivatives was evaluated in terms of cell differentiation-inducing activity toward human acute promyelocytic leukemia cell line HL-60 [12]. HL-60 cell differentiation was evaluated in terms of the ratio of nitroblue tetrazolium (NBT)-positive cells (Figure 3 and Table 1).
Control cells were treated with the same volume of ethanol alone. 1α,25(OH)2D3 was always assayed at the same time as a positive control. The cells were incubated at 37 °C under 5% CO2 in air for 4 days. The percentage of differentiated cells was determined by nitro-blue tetrazolium (NBT) reduction assay. […] The percentage of cells containing blue-black formazan was determined in a minimum of 200 cells. All experiments were done in triplicate.

[1] = set-up: method as in PMID 33853023; conditions: cited from earlier work
[2] = preliminary pharmacokinetics in mice (data not shown); format: in vivo; conditions: preliminary results
[3] = target: T2, rat VDR LBD (residues 116–423, Δ165–211); experiment: crystal structure; VDR LBD with about 10 equiv of ligand 7b and coactivator peptide (25 mM Tris-HCl, pH 8.0; 50 mM NaCl; 10 mM DTT; 0.02% NaN3); vapor diffusion, 0.2 M potassium citrate tribasic monohydrate, 20% (w/v) PEG3350, 20 °C; 1.94 Å; conditions: both partners purified
[4] = HEK293 cells transfected with pCMX-hVDR and TK-Spp×3-LUC reporter, 'Inactive' = no or week active at the concentrations below 1 μM
[5] = ratio of NBT-positive cells, 4 days incubation, 'Inactive' = no or week active at the concentrations below 1 μM

Row | Molecule | EC50 (VDR; [4]) [nM] | EC50 (HL-60 cells; [5]) [nM] | further results
1 | CONC(=O)CC[C@@H](C)[C@H]1CC[C@H]2[C@@H]3CC[C@@H]4C[C@H](CC(C)(C)O)CC[C@]4(C)[C@H]3CC[C@]12C [Compound 5b] | 0.14 | 1.45 | –
2 | C[C@H](CCC(=O)NCS(=O)(=O)O)[C@H]1CC[C@H]2[C@@H]3CC[C@@H]4C[C@H](CC(C)(C)O)CC[C@]4(C)[C@H]3CC[C@]12C [Compound 8a] | – | 18.5 | –
3 | C[C@H](CCC(=O)NCCC(=O)O)[C@H]1CC[C@H]2[C@@H]3CC[C@@H]4C[C@H](CC(C)(C)O)CC[C@]4(C)[C@H]3CC[C@]12C [Compound 7b] | 0.89 | 0.45 | –
4 | C[C@H](CCC(=O)O)[C@H]1CC[C@H]2[C@@H]3CC[C@@H]4C[C@H](O)CC[C@]4(C)[C@H]3CC[C@]12C [LCA (2), Lithocholic acid] | – | – | Transactivation Assay EC50 (VDR; [4]): Inactive ^a; VDR transactivation activity (in words) (VDR; HEK293 cells, LCA: at the concentration below 1 μM): did not show the activity; HL-60 Assay EC50 (HL-60 cells; [5]): Inactive ^a
5 | C=C1/C(=C\C=C2/CCC[C@]3(C)[C@@H]([C@H](C)CCCC(C)(C)O)CC[C@@H]23)C[C@@H](O)C[C@@H]1O [1α,25(OH)2D3 (1), 1α,25-Dihydroxyvitamin D3, reference compound] | – | – | EC50 (HL-60 cells): 0.74 nM
6 | C[C@H](CCC(=O)NO)[C@H]1CC[C@H]2[C@@H]3CC[C@@H]4C[C@H](CC(C)(C)O)CC[C@]4(C)[C@H]3CC[C@]12C [Compound 5a] | 0.14 | 1.18 | –
7 | C[C@H](CCC(=O)NC#N)[C@H]1CC[C@H]2[C@@H]3CC[C@@H]4C[C@H](CC(C)(C)O)CC[C@]4(C)[C@H]3CC[C@]12C [Compound 6] | 0.1 | 0.32 | –
8 | C[C@H](CCC(=O)O)[C@H]1CC[C@H]2[C@@H]3CC[C@@H]4C[C@H](CC(C)(C)O)CC[C@]4(C)[C@H]3CC[C@]12C [Compound 3] | 0.083 | 1.01 | calcemic activity compared with 1α,25(OH)2D3 (1) [1]: lower calcemic activity than 1; calcemic activity compared with 1α,25(OH)2D3 (1) ([1]; listed as 3 (Dcha-20)): lower calcemic activity; elimination from the serum [2]: eliminated very quickly
9 | C[C@H](CCC(=O)NCCS(=O)(=O)O)[C@H]1CC[C@H]2[C@@H]3CC[C@@H]4C[C@H](CC(C)(C)O)CC[C@]4(C)[C@H]3CC[C@]12C [Compound 8b] | – | 6.56 | –
10 | CNC(=O)CC[C@@H](C)[C@H]1CC[C@H]2[C@@H]3CC[C@@H]4C[C@H](CC(C)(C)O)CC[C@]4(C)[C@H]3CC[C@]12C [Compound 4b] | 0.96 | – | HL-60 Assay EC50 (HL-60 cells; [5]): Inactive ^a
11 | C[C@H](CCC(=O)NCCCC(=O)O)[C@H]1CC[C@H]2[C@@H]3CC[C@@H]4C[C@H](CC(C)(C)O)CC[C@]4(C)[C@H]3CC[C@]12C [Compound 7c] | 0.081 | 0.64 | –
12 | C[C@H](CCC(N)=O)[C@H]1CC[C@H]2[C@@H]3CC[C@@H]4C[C@H](CC(C)(C)O)CC[C@]4(C)[C@H]3CC[C@]12C [Compound 4a] | 0.12 | 0.44 | –
13 | C[C@H](CCC(=O)NCC(=O)O)[C@H]1CC[C@H]2[C@@H]3CC[C@@H]4C[C@H](CC(C)(C)O)CC[C@]4(C)[C@H]3CC[C@]12C [Compound 7a] | – | 2.03 | –
14 | B1 | – | – | binding result [3]: binds
